Test results as given in patent US8859541B2, “6-alkynylpyridines” (Boehringer Ingelheim International GmbH, priority 2012, dated 2014).

Target: T1, XIAP BIR3 (Homo sapiens, UniProt P98170)
T1 construct: covering amino acids 241 to 356; XIAP BIR3; made in house; host or cells: E. coli
Assay: XIAP BIR3 binding assay (DELFIA), displacement of SMAC peptide
Details: GST-fusion BIR3 domain (aa 241 to 356) 10 nM, SMAC peptide 10 nM; activity of the (S)-isomers
Procedure: Biological Methods XIAP BIR3 and cIAP1 BIR3 Binding Assays (DELFIA)
Peptide […]-Lys(Biotin), representing the N-terminus of mature human SMAC (SMAC peptide), was used as interaction partner in the protein-peptide interaction assay.
BIR3 domains (10 nM) were incubated with SMAC peptide (10 nM) in Assay Buffer (50 mM Tris, 120 mM NaCl, 0.1% BSA, 1 mM DTT, 0.05% TritonX100) for one hour at room temperature in the presence of inhibitiory compounds. The assay mixture was transferred to a strepatvidin coated plate and incubated for one hour at room temperature to allow binding of the biotinylated peptide and associated BIR3 domains to the plate. After several washing steps Eu labeled anti-GST antibody (e.g. Perkin Elmer DELFIA Eu-N1-antiGST AD0250) was added to detect BIR3 domain-SMAC peptide interactions according to Perkin Elmer's instructions. […] Time resolved Europium fluoresecence was measured in a Wallac Victor using Standard assay settings.
DELFIA assay results were plotted against compound concentrations and Software GraphPad Prizm was used to calculate half maximal inhibitory concentrations (IC50 values).

T1 sequence (P98170 241-356): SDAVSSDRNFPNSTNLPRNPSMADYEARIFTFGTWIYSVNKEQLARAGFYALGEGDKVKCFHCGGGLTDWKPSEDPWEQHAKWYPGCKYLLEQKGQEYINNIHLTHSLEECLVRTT

IC50 [nM] | SMILES
287 | CNC(C)C(=O)Nc1ccc(-c2c(C)cncc2C)c(C#Cc2ccc3ncccc3c2)n1 (centres unmarked) [Example 1, N-[5-(3,5-dimethylpyridin-4-yl)-6-(2-quinolin-6-ylethynyl)pyridin-2-yl]-2-(methylamino)propanamide]
259 | CNC(C)C(=O)Nc1ccc(-c2cncnc2)c(C#Cc2ccc3c(c2)OCCCO3)n1 (centres unmarked) [Example 2, N-(6-[2-(3,4-dihydro-2H-1,5-benzodioxepin-7-yl)ethynyl]-5-pyrimidin-5-ylpyridin-2-yl]-2-(methylamino)propanamide]
1150 | CNC(C)C(=O)Nc1ccc(-c2cncc3ccccc23)c(C#Cc2ccc(OC)cc2)n1 (centres unmarked) [Example 3, N-[5-isoquinolin-4-yl-6-[2-(4-methoxyphenyl)ethynyl]-pyridin-2-yl]-2-(methyl-amino)propanamide]
643 | CNC(C)C(=O)Nc1ccc(-c2cncc3ccccc23)c(C#Cc2ccc(F)cc2)n1 (centres unmarked) [Example 4, N-[6-[2-(4-fluorophenyl)-ethynyl]-5-isoquinolin-4-ylpyridin-2-yl]-2-(methyl-amino)propanamide]
509 | CNC(C)C(=O)Nc1ccc(-c2cncc3ccccc23)c(C#Cc2ccc3c(c2)OCC(=O)N3)n1 (centres unmarked) [Example 5, N-[5-isoquinolin-4-yl-6-[2-(3-oxo-4H-1,4-benzoxazin-7-yl)-ethynyl]pyridin-2-yl]-2-(methylamino)propanamide]
214 | CNC(C)C(=O)Nc1ccc(-c2cncnc2C)c(C#Cc2ccc(C)c(C)c2)n1 (centres unmarked) [Example 6, N-[6-[2-(3,4-dimethylphenyl)-ethynyl]-5-(4-methylpyrimidin-5-yl)pyridin-2-yl]-2-(methylamino)propan-amide]
460 | CNC(C)C(=O)Nc1ccc(-c2cncnc2)c(C#Cc2ccc3[nH]c(C)nc3c2)n1 (centres unmarked) [Example 7, 2-(methylamino)-N-[6-[2-(2-methyl-1H-benzimidazol-5-yl)ethynyl]-5-pyrimidin-5-ylpyridin-2-yl]propanamide]
351 | CNC(C)C(=O)Nc1ccc(-c2cncnc2)c(C#Cc2ccc(-c3ccccn3)s2)n1 (centres unmarked) [Example 8, 2-(methylamino)-N-[6-[2-(5-pyridin-2-ylthiophen-2-yl)-ethynyl]-5-pyrimidin-5-ylpyridin-2-yl]propanamide]
1010 | CNC(C)C(=O)Nc1ccc(-c2cncnc2)c(C#Cc2ccc3ccccc3n2)n1 (centres unmarked) [Example 9, 2-(methylamino)-N-[5-pyrimidin-5-yl-6-(2-quinolin-2-ylethynyl)pyridin-2-yl]-propanamide]
787 | CNC(C)C(=O)Nc1ccc(-c2cncnc2)c(C#Cc2ccc3[nH]cnc3c2)n1 (centres unmarked) [Example 10, N-[6-[2-(1H-benzimidazol-5-yl)ethynyl]-5-pyrimidin-5-ylpyridin-2-yl]-2-(methyl-amino)propanamide]
1210 | CNC(C)C(=O)Nc1ccc(-c2cncnc2)c(C#Cc2ccc3c(c2)C(=O)CCO3)n1 (centres unmarked) [Example 11, 2-(methylamino)-N-[6-[2-(4-oxo-2,3-dihydrochromen-6-yl)ethynyl]-5-pyrimidin-5-ylpyridin-2-yl]propanamide]
1430 | CNC(C)C(=O)Nc1ccc(-c2cncnc2)c(C#Cc2ccc(OC)c(C#N)c2)n1 (centres unmarked) [Example 12, N-[6-[2-(3-cyano-4-methoxyphenyl)ethynyl]-5-pyrimidin-5-ylpyridin-2-yl]-2-(methylamino)propanamide]
417 | CNC(C)C(=O)Nc1ccc(-c2cncnc2)c(C#Cc2ccc3c(c2)OCCO3)n1 (centres unmarked) [Example 14, N-[6-[2-(2,3-dihydro-1,4-benzodioxin-6-yl)ethynyl]-5-pyrimidin-5-ylpyridin-2-yl]-2-(methylamino)propanamide]
711 | CNC(C)C(=O)Nc1ccc(-c2cncnc2)c(C#Cc2ccc3scnc3c2)n1 (centres unmarked) [Example 15, N-[6-[2-(1,3-benzothiazol-5-yl)ethynyl]-5-pyrimidin-5-ylpyridin-2-yl]-2-(methyl-amino)propanamide]
